Patent US10721934B2, “Enhanced preservative” (Arch Chemicals, Inc., priority 2013, dated 2020)

Columns and labels:
Type in all cases: cell-based
[1] = system: mixed bacterial inoculum (Pseudomonas aeruginosa, Enterobacter cloacae, Escherichia coli, Acinetobacter calcoaceticus); assay: Repeated inoculation of standard acrylic paint, streak plate rating
Procedure: In the following experiments, a pyrithione, an isothiazolinone, and a biocide enhancing agent in accordance with the present disclosure were combined with a standard acrylic paint. The concentrations of the pyrithione, the isothiazolinone and the biocide enhancing agent were varied. The pyrithione, the isothiazolinone and the biocide enhancing agent were added alone and in various mixtures to the standard acrylic paint.
The acrylic paint was then inoculated three times using a mixed bacterial inoculum. The bacterial inoculum, which comprised a bacterial suspension in water, contained the following four bacteria in equal proportions.
The samples were streak plated at 24, 48, and 72 hours after inoculation. The streak plates were rated as follows;

[2] = system: Pseudomonas aeruginosa ATCC 15442; assay: Minimum Inhibitory Concentration (MIC) test, 96 well microtiter plate; settings: single chemical
Procedure: Microorganisms: Pseudomonas aeruginosa ATCC 15442
(§1) MIC set up: A 96 well microtiter plate Minimum Inhibitory Concentration (MIC) test was run in broth suitable for the test organism. Serially diluted actives were prepared in sterilized water, and the start-up concentration varied depending on the efficacy range. Inocula prepared in 2× suitable broth was added into each well, and the final concentrations of bacteria were adjusted to approximately 5×10^5.

Escherichia coli = assay: MIC test, 96 well microtiter plate; settings: single chemical
Procedure: as §1
(§2) Further MIC tests were conducted using different amine compounds in combination with a pyrithione and two different isothiazolinones. The procedures described in Example No. 1 were used.

Aureobasidium pullulans = assay: MIC test, 96 well microtiter plate; settings: single chemical
Procedure: as §1, §2

Staphylococcus aureus = assay: MIC test, 96 well microtiter plate; settings: single chemical
Procedure: as §1, §2

Candida albicans = assay: MIC test, 96 well microtiter plate; settings: single chemical
Procedure: as §1, §2

Aspergillus brasiliensis = assay: MIC test, 96 well microtiter plate; settings: single chemical
Procedure: as §1, §2

SMILES: O=c1[nH]sc2ccccc12 [BIT, 1,2 Benzisothiazolin-3-one]
- streak plate rating ([1]; Set Five, BIT 50 ppm, 1st inoculation 24 h): 5 (>45 viable microorganisms Severely contaminated)
- streak plate rating ([1]; Set Five, BIT 50 ppm, 1st inoculation 48 h): 5 (>45 viable microorganisms Severely contaminated)
- streak plate rating ([1]; Set Five, BIT 50 ppm, 1st inoculation 72 h): 5 (>45 viable microorganisms Severely contaminated)
- streak plate rating ([1]; Set Five, BIT 50 ppm, 2nd inoculation 24 h): 5 (>45 viable microorganisms Severely contaminated)
- streak plate rating ([1]; Set Five, BIT 50 ppm, 2nd inoculation 48 h): 5 (>45 viable microorganisms Severely contaminated)
- streak plate rating ([1]; Set Five, BIT 50 ppm, 2nd inoculation 72 h): 5 (>45 viable microorganisms Severely contaminated)
- streak plate rating ([1]; Set Five, BIT 50 ppm, 3rd inoculation 24 h): 5 (>45 viable microorganisms Severely contaminated)
- streak plate rating ([1]; Set Five, BIT 50 ppm, 3rd inoculation 48 h): 5 (>45 viable microorganisms Severely contaminated)
- streak plate rating ([1]; Set Five, BIT 50 ppm, 3rd inoculation 72 h): 5 (>45 viable microorganisms Severely contaminated)
- streak plate rating ([1]; Set Four, BIT 50 ppm, 1st inoculation 24 h): 5 (>45 viable microorganisms Severely contaminated)
- streak plate rating ([1]; Set Four, BIT 50 ppm, 1st inoculation 48 h): 5 (>45 viable microorganisms Severely contaminated)
- streak plate rating ([1]; Set Four, BIT 50 ppm, 1st inoculation 72 h): 5 (>45 viable microorganisms Severely contaminated)
- streak plate rating ([1]; Set Four, BIT 50 ppm, 2nd inoculation 24 h): 5 (>45 viable microorganisms Severely contaminated)
- streak plate rating ([1]; Set Four, BIT 50 ppm, 2nd inoculation 48 h): 5 (>45 viable microorganisms Severely contaminated)
- streak plate rating ([1]; Set Four, BIT 50 ppm, 2nd inoculation 72 h): 5 (>45 viable microorganisms Severely contaminated)
- streak plate rating ([1]; Set Four, BIT 50 ppm, 3rd inoculation 24 h): 5 (>45 viable microorganisms Severely contaminated)
- streak plate rating ([1]; Set Four, BIT 50 ppm, 3rd inoculation 48 h): 5 (>45 viable microorganisms Severely contaminated)
- streak plate rating ([1]; Set Four, BIT 50 ppm, 3rd inoculation 72 h): 5 (>45 viable microorganisms Severely contaminated)
- streak plate rating ([1]; Set One, BIT 60 ppm, 1st inoculation 24 h): 5 (>45 viable microorganisms Severely contaminated)
- streak plate rating ([1]; Set One, BIT 60 ppm, 1st inoculation 48 h): 5 (>45 viable microorganisms Severely contaminated)
- streak plate rating ([1]; Set One, BIT 60 ppm, 1st inoculation 72 h): 5 (>45 viable microorganisms Severely contaminated)
- streak plate rating ([1]; Set One, BIT 60 ppm, 2nd inoculation 24 h): 5 (>45 viable microorganisms Severely contaminated)
- streak plate rating ([1]; Set One, BIT 60 ppm, 2nd inoculation 48 h): 5 (>45 viable microorganisms Severely contaminated)
- streak plate rating ([1]; Set One, BIT 60 ppm, 3rd inoculation 24 h): 5 (>45 viable microorganisms Severely contaminated)
- streak plate rating ([1]; Set One, BIT 60 ppm, 3rd inoculation 48 h): 5 (>45 viable microorganisms Severely contaminated)
- streak plate rating ([1]; Set One, BIT 60 ppm, 3rd inoculation 72 h): 5 (>45 viable microorganisms Severely contaminated)
- streak plate rating ([1]; Set One, BIT 120 ppm, 1st inoculation 24 h): 1 (1-5 viable microorganisms Very lightly contaminated)
- streak plate rating ([1]; Set One, BIT 120 ppm, 1st inoculation 48 h): 3 (16-30 viable microorganisms Moderately contaminated)
- streak plate rating ([1]; Set One, BIT 120 ppm, 1st inoculation 72 h): 3 (16-30 viable microorganisms Moderately contaminated)
- streak plate rating ([1]; Set One, BIT 120 ppm, 2nd inoculation 24 h): 5 (>45 viable microorganisms Severely contaminated)
- streak plate rating ([1]; Set One, BIT 120 ppm, 2nd inoculation 48 h): 5 (>45 viable microorganisms Severely contaminated)
- streak plate rating ([1]; Set One, BIT 120 ppm, 3rd inoculation 24 h): 5 (>45 viable microorganisms Severely contaminated)
- streak plate rating ([1]; Set One, BIT 120 ppm, 3rd inoculation 48 h): 5 (>45 viable microorganisms Severely contaminated)
- streak plate rating ([1]; Set One, BIT 120 ppm, 3rd inoculation 72 h): 5 (>45 viable microorganisms Severely contaminated)
- streak plate rating ([1]; Set Three, BIT 50 ppm, 1st inoculation 24 h): 5 (>45 viable microorganisms Severely contaminated)
- streak plate rating ([1]; Set Three, BIT 50 ppm, 1st inoculation 48 h): 5 (>45 viable microorganisms Severely contaminated)
- streak plate rating ([1]; Set Three, BIT 50 ppm, 1st inoculation 72 h): 5 (>45 viable microorganisms Severely contaminated)
- streak plate rating ([1]; Set Three, BIT 50 ppm, 2nd inoculation 24 h): 5 (>45 viable microorganisms Severely contaminated)
- streak plate rating ([1]; Set Three, BIT 50 ppm, 2nd inoculation 48 h): 5 (>45 viable microorganisms Severely contaminated)
- streak plate rating ([1]; Set Three, BIT 50 ppm, 2nd inoculation 72 h): 5 (>45 viable microorganisms Severely contaminated)
- streak plate rating ([1]; Set Three, BIT 50 ppm, 3rd inoculation 24 h): 5 (>45 viable microorganisms Severely contaminated)
- streak plate rating ([1]; Set Three, BIT 50 ppm, 3rd inoculation 48 h): 5 (>45 viable microorganisms Severely contaminated)
- streak plate rating ([1]; Set Three, BIT 50 ppm, 3rd inoculation 72 h): 5 (>45 viable microorganisms Severely contaminated)
- streak plate rating ([1]; Set Two, BIT 25 ppm, 1st inoculation 24 h): 5 (>45 viable microorganisms Severely contaminated)
- streak plate rating ([1]; Set Two, BIT 25 ppm, 1st inoculation 48 h): 5 (>45 viable microorganisms Severely contaminated)
- streak plate rating ([1]; Set Two, BIT 25 ppm, 1st inoculation 72 h): 5 (>45 viable microorganisms Severely contaminated)
- streak plate rating ([1]; Set Two, BIT 25 ppm, 2nd inoculation 24 h): 5 (>45 viable microorganisms Severely contaminated)
- streak plate rating ([1]; Set Two, BIT 25 ppm, 2nd inoculation 48 h): 5 (>45 viable microorganisms Severely contaminated)
- streak plate rating ([1]; Set Two, BIT 25 ppm, 2nd inoculation 72 h): 5 (>45 viable microorganisms Severely contaminated)
- streak plate rating ([1]; Set Two, BIT 25 ppm, 3rd inoculation 24 h): 5 (>45 viable microorganisms Severely contaminated)
- streak plate rating ([1]; Set Two, BIT 25 ppm, 3rd inoculation 48 h): 5 (>45 viable microorganisms Severely contaminated)
- streak plate rating ([1]; Set Two, BIT 25 ppm, 3rd inoculation 72 h): 5 (>45 viable microorganisms Severely contaminated)
- streak plate rating ([1]; Set Two, BIT 50 ppm, 1st inoculation 24 h): 5 (>45 viable microorganisms Severely contaminated)
- streak plate rating ([1]; Set Two, BIT 50 ppm, 1st inoculation 48 h): 5 (>45 viable microorganisms Severely contaminated)
- streak plate rating ([1]; Set Two, BIT 50 ppm, 1st inoculation 72 h): 5 (>45 viable microorganisms Severely contaminated)
- streak plate rating ([1]; Set Two, BIT 50 ppm, 2nd inoculation 24 h): 5 (>45 viable microorganisms Severely contaminated)
- streak plate rating ([1]; Set Two, BIT 50 ppm, 2nd inoculation 48 h): 5 (>45 viable microorganisms Severely contaminated)
- streak plate rating ([1]; Set Two, BIT 50 ppm, 2nd inoculation 72 h): 5 (>45 viable microorganisms Severely contaminated)
- streak plate rating ([1]; Set Two, BIT 50 ppm, 3rd inoculation 24 h): 5 (>45 viable microorganisms Severely contaminated)
- streak plate rating ([1]; Set Two, BIT 50 ppm, 3rd inoculation 48 h): 5 (>45 viable microorganisms Severely contaminated)
- streak plate rating ([1]; Set Two, BIT 50 ppm, 3rd inoculation 72 h): 5 (>45 viable microorganisms Severely contaminated)
- Minimum Inhibitory Concentration [2]: 32.5 ppm
- Minimum Inhibitory Concentration (Escherichia coli): 6.1 ppm
- Minimum Inhibitory Concentration (Aureobasidium pullulans): 4.1 ppm
- Minimum Inhibitory Concentration (Staphylococcus aureus): 8.1 ppm
- Minimum Inhibitory Concentration (Candida albicans): 8.1 ppm
- Minimum Inhibitory Concentration (Aspergillus brasiliensis): 32.5 ppm
